Assay results published in the kinase profiling compilation of Christmann-Franck et al. (2016).
“And” between values parts separate entries of the source, which are not always exact repeats. Identical values can stand only once.

Tests used:
Test in all cases: radiometric filter-binding kinase assay, Kinase HotSpot
Settings in all cases: compound 0.5 µM; ATP 10 µM
ALK (human) = ALK (human) (UniProt Q9UM73)
AURKB (human) = AURKB (human) (UniProt Q96GD4)
CAMK2A (human) = CAMK2A (human) (UniProt Q9UQM7)
CDC42BPA (human) = CDC42BPA (human) (UniProt Q5VT25)
CDK3 CCNE1 (human) = CDK3 CCNE1 (human) (UniProt Q00526+P24864)
CDK6 CCND1 (human) = CDK6 CCND1 (human) (UniProt Q00534+P24385)
CDK6 CCND3 (human) = CDK6 CCND3 (human) (UniProt P30281+Q00534)
CDK7 CCNH MNAT1 (human) = CDK7 CCNH MNAT1 (human) (UniProt P50613+P51948+P51946)
CHEK2 (human) = CHEK2 (human) (UniProt O96017)
CLK2 (human) = CLK2 (human) (UniProt P49760)
CSK (human) = CSK (human) (UniProt P41240)
DAPK2 (human) = DAPK2 (human) (UniProt Q9UIK4)
DCLK2 (human) = DCLK2 (human) (UniProt Q8N568)
EGFR (human) = EGFR (human) (UniProt P00533)
EPHA4 (human) = EPHA4 (human) (UniProt P54764)
FLT3 (human) = FLT3 (human) (UniProt P36888)
GSG2 (human) = GSG2 (human) (UniProt Q8TF76)
IGF1R (human) = IGF1R (human) (UniProt P08069)
IKBKB (human) = IKBKB (human) (UniProt O14920)
JAK3 JH1 JH2 (human) = JAK3 JH1 JH2 (human) (UniProt P52333)
LYN (human) = LYN (human) (UniProt P07948)
MAP3K11 (human) = MAP3K11 (human) (UniProt Q16584)
MAP3K7 TAB1 (human) = MAP3K7 TAB1 (human) (UniProt O43318+Q15750)
MAP4K4 (human) = MAP4K4 (human) (UniProt O95819)
MAPKAPK2 (human) = MAPKAPK2 (human) (UniProt P49137)
MATK (human) = MATK (human) (UniProt P42679)
MST4 (human) = MST4 (human) (UniProt Q9P289)
NEK6 (human) = NEK6 (human) (UniProt Q9HC98)
NEK9 (human) = NEK9 (human) (UniProt Q8TD19)
NLK (human) = NLK (human) (UniProt Q9UBE8)
PAK1 (human) = PAK1 (human) (UniProt Q13153)
PLK3 (human) = PLK3 (human) (UniProt Q9H4B4)
PRKCE (human) = PRKCE (human) (UniProt Q02156)
PRKCG (human) = PRKCG (human) (UniProt P05129)
PRKCH (human) = PRKCH (human) (UniProt P24723)
PRKG1 (human) = PRKG1 (human) (UniProt Q13976)
STK39 (human) = STK39 (human) (UniProt Q9UEW8)
VRK1 (human) = VRK1 (human) (UniProt Q99986)

NLK (human), sequence (Q9UBE8 whole entry, looked up): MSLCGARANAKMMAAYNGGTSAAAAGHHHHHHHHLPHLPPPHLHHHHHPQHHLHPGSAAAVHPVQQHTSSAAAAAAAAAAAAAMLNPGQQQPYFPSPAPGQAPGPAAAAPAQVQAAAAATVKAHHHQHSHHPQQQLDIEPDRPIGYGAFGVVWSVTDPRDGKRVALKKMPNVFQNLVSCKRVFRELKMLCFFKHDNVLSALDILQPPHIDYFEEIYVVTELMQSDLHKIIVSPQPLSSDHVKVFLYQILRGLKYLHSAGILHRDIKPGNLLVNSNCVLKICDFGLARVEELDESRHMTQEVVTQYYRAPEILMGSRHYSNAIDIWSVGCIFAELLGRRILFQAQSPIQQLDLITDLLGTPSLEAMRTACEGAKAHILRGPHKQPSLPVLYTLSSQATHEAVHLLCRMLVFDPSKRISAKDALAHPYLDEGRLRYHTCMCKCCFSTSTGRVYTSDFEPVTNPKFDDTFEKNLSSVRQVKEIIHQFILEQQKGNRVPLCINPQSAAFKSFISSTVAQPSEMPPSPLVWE
EPHA4 (human), sequence (P54764 whole entry, looked up): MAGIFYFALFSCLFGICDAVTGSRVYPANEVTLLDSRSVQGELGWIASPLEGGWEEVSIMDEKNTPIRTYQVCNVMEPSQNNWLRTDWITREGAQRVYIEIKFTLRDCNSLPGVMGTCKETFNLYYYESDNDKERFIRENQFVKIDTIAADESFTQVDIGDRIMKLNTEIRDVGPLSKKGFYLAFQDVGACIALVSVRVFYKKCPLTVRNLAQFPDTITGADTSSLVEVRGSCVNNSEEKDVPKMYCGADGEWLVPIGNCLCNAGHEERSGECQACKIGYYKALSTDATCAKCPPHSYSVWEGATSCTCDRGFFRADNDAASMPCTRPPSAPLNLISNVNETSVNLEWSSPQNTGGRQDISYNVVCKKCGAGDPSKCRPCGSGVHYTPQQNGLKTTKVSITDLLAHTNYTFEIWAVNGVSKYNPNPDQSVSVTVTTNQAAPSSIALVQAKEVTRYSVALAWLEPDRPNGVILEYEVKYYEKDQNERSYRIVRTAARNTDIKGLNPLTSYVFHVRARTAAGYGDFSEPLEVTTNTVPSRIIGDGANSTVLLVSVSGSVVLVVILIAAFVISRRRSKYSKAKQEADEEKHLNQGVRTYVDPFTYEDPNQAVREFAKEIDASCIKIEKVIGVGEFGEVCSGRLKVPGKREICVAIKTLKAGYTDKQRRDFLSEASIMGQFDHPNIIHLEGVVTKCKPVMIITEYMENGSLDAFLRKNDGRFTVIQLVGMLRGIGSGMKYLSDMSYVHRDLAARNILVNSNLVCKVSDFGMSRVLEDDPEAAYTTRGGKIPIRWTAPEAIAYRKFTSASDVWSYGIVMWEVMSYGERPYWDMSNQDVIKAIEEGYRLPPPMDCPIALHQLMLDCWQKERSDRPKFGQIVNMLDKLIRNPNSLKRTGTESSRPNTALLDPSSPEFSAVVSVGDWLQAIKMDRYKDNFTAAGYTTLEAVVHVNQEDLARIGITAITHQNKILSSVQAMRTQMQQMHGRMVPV
JAK3 JH1 JH2 (human), sequence (P52333 whole entry, looked up): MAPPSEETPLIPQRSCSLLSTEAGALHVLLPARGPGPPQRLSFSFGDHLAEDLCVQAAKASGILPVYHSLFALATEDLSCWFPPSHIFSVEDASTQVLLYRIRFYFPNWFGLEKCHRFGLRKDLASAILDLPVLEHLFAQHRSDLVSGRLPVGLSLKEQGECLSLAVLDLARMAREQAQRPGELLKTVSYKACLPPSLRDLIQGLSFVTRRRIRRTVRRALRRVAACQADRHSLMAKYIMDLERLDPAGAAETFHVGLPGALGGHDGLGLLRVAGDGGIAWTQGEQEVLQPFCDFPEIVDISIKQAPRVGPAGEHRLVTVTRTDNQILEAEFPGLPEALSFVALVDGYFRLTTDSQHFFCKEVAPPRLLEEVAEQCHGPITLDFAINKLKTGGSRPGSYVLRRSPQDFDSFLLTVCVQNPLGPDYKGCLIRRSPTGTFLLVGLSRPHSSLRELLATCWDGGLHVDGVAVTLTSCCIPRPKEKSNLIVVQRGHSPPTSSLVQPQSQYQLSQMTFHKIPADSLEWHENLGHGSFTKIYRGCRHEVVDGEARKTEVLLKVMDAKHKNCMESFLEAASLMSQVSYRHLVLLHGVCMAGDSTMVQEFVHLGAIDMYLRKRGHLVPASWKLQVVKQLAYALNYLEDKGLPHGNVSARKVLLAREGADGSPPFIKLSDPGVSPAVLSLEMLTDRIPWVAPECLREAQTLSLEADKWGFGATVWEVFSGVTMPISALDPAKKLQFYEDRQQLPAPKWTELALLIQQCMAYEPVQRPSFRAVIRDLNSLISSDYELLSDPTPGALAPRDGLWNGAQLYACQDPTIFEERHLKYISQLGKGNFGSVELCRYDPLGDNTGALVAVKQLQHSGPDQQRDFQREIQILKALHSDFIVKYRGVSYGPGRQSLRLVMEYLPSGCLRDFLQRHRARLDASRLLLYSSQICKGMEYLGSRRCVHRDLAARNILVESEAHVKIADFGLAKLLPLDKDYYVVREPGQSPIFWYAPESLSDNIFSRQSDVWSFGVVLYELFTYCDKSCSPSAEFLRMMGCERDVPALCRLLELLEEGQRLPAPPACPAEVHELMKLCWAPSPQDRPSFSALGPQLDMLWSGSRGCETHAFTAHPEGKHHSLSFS
MAP3K11 (human), sequence (Q16584 whole entry, looked up): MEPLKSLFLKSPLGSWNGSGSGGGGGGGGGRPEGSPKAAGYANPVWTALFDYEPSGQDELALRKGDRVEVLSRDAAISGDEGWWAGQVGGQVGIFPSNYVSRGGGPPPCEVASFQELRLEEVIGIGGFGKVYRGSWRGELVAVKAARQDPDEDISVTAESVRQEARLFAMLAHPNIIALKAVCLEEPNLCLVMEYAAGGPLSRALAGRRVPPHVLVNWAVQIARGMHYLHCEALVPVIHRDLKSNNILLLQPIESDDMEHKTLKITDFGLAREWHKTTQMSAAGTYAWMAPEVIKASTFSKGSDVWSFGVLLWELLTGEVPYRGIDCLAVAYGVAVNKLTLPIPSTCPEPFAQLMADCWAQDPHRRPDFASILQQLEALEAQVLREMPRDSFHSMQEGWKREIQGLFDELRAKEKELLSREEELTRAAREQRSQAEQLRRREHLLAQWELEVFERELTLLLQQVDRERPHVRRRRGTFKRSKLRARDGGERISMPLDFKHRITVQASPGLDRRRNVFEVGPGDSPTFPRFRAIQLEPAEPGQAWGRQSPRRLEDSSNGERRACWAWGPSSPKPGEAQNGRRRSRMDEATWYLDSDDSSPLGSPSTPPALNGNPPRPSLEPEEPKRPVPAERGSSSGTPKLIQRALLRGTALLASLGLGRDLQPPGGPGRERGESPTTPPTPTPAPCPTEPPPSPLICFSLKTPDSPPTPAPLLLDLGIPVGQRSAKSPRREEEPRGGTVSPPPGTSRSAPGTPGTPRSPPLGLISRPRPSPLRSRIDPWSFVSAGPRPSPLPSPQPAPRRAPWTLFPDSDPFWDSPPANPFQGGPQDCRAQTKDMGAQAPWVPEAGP
CLK2 (human), sequence (P49760 whole entry, looked up): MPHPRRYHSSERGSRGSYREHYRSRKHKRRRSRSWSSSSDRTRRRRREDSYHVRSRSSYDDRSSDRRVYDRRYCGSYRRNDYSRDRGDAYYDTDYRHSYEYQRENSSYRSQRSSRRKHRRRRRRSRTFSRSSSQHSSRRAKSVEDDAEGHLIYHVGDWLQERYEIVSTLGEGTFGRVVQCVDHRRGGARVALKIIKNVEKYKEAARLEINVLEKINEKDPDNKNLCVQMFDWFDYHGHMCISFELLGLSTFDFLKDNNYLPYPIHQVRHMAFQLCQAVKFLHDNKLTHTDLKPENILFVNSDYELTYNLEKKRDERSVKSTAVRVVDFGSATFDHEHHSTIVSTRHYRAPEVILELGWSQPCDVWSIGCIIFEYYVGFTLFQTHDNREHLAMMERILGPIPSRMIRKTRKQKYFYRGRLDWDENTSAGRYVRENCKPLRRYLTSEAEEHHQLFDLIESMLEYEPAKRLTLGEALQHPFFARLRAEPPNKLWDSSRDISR
AURKB (human), sequence (Q96GD4 whole entry, looked up): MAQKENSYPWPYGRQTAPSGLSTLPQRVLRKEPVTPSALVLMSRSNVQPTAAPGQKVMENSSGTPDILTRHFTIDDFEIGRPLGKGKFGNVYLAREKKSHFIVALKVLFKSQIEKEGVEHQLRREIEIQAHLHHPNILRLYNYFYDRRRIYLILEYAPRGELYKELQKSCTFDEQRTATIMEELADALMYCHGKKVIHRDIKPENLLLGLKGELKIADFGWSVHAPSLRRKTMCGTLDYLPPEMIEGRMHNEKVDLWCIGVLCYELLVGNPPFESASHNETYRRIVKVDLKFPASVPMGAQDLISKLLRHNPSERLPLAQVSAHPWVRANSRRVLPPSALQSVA

Row | SMILES | residual activity (ALK (human)) | residual activity (AURKB (human)) | residual activity (CAMK2A (human)) | residual activity (CDC42BPA (human)) | residual activity (CDK3 CCNE1 (human)) | residual activity (CDK6 CCND1 (human)) | residual activity (CDK6 CCND3 (human)) | residual activity (CHEK2 (human)) | residual activity (CLK2 (human)) | residual activity (CSK (human)) | residual activity (DAPK2 (human)) | residual activity (DCLK2 (human)) | residual activity (EGFR (human)) | residual activity (EPHA4 (human)) | residual activity (FLT3 (human)) | residual activity (GSG2 (human)) | residual activity (IGF1R (human)) | residual activity (IKBKB (human)) | residual activity (JAK3 JH1 JH2 (human)) | residual activity (MAP3K11 (human)) | other results
1 | CCCCc1c(-c2ccc(OC)cc2)[nH]c2nccnc12 | 96.7% | 64.5% | 100% | 99.7% | 83.8% | 54.8% | 79.7% | 72.8% | 85.3% | 87% | 101% | 101% | 103% | 85.5% | 47.8% | 80% | 83.9% | 102% | 92.8% | 39.4% | residual activity (CDK7 CCNH MNAT1 (human)): 92.6%; residual activity (LYN (human)): 108% and 85.5%; residual activity (MAP3K7 TAB1 (human)): 90.6%; residual activity (MAP4K4 (human)): 66.5%; residual activity (MAPKAPK2 (human)): 90.2%; residual activity (MATK (human)): 101%; residual activity (MST4 (human)): 75.8%; residual activity (NEK6 (human)): 111%; residual activity (NEK9 (human)): 106%; residual activity (NLK (human)): 88.4%; residual activity (PAK1 (human)): 83.7%; residual activity (PLK3 (human)): 91.5%; residual activity (PRKCE (human)): 102%; residual activity (PRKCG (human)): 94.4%; residual activity (PRKCH (human)): 103%; residual activity (PRKG1 (human)): 102% and 92.7%; residual activity (STK39 (human)): 77.8%; residual activity (VRK1 (human)): 95.5%
2 | Ic1cccc(CSc2nnc(-c3ccncc3)o2)c1 | 101% | 99.1% | 92.3% | 98.4% | 87.4% | 97.5% | 102% | 102% | 104% | 101% | 108% | 100% | 97.1% | 105% | 102% | 95.9% | 99.1% | 89.3% | 106% | 99.6% | residual activity (CDK7 CCNH MNAT1 (human)): 96.7%; residual activity (LYN (human)): 103% and 99.6%; residual activity (MAP3K7 TAB1 (human)): 102%; residual activity (MAP4K4 (human)): 97.4%; residual activity (MAPKAPK2 (human)): 93.5%; residual activity (MATK (human)): 94.3%; residual activity (MST4 (human)): 103%; residual activity (NEK6 (human)): 95.4%; residual activity (NEK9 (human)): 99.2%; residual activity (NLK (human)): 107%; residual activity (PAK1 (human)): 94.8%; residual activity (PLK3 (human)): 96.1%; residual activity (PRKCE (human)): 86.5%; residual activity (PRKCG (human)): 98.7%; residual activity (PRKCH (human)): 99.1%; residual activity (PRKG1 (human)): 92.1% and 95.5%; residual activity (STK39 (human)): 101%; residual activity (VRK1 (human)): 93.1%
3 | COc1cc2ncnc(Nc3ccc(OCc4ccccc4)cc3)c2cc1OC | 103% | 50.3% | 107% | 101% | 96.3% | 96.7% | 97.8% | 14.2% | 102% | 72.5% | 99.9% | 102% | 21.3% | 98.5% | 56.4% | 86.2% | 102% | 103% | 108% | 92.2% | residual activity (CDK7 CCNH MNAT1 (human)): 98.8%; residual activity (LYN (human)): 91.2% and 92.8%; residual activity (MAP3K7 TAB1 (human)): 101%; residual activity (MAP4K4 (human)): 103%; residual activity (MAPKAPK2 (human)): 106%; residual activity (MATK (human)): 97.5%; residual activity (MST4 (human)): 91.6%; residual activity (NEK6 (human)): 97.6%; residual activity (NEK9 (human)): 104%; residual activity (NLK (human)): 96.5%; residual activity (PAK1 (human)): 93.2%; residual activity (PLK3 (human)): 98%; residual activity (PRKCE (human)): 99.4%; residual activity (PRKCG (human)): 98.5%; residual activity (PRKCH (human)): 97.2%; residual activity (PRKG1 (human)): 90.3% and 99.3%; residual activity (STK39 (human)): 95.8%; residual activity (VRK1 (human)): 89%
4 | NC(=O)c1cccc(-c2cc(Nc3ccc(OC(F)(F)F)cc3)ncn2)c1 | 103% | 96.9% | 102% | 99.3% | 98.8% | 99.1% | 96.2% | 101% | 93.1% | 104% | 99.1% | 104% | 96.6% | 94.4% | 98.9% | 105% | 91% | 98.6% | 101% | 99.4% | residual activity (LYN (human)): 101% and 99.8%; residual activity (MAP3K7 TAB1 (human)): 99.1%; residual activity (MAP4K4 (human)): 104%; residual activity (MAPKAPK2 (human)): 97.3%; residual activity (MATK (human)): 100%; residual activity (MST4 (human)): 94.7%; residual activity (NEK6 (human)): 97.4%; residual activity (NEK9 (human)): 93.8%; residual activity (NLK (human)): 93.4%; residual activity (PAK1 (human)): 93.3%; residual activity (PLK3 (human)): 96.9%; residual activity (PRKCE (human)): 111%; residual activity (PRKCG (human)): 83.6%; residual activity (PRKCH (human)): 98.4%; residual activity (PRKG1 (human)): 92.9% and 98.4%; residual activity (STK39 (human)): 85.5%; residual activity (VRK1 (human)): 97.9%
5 | CC(C)(C)c1cc(C=C(C#N)C#N)cc(Br)c1O | 97.9% | 97.1% | 104% | 101% | 98.9% | 99.1% | 89.3% | 104% | 104% | 106% | 108% | 109% | 106% | 94.7% | 102% | 67.2% | 96.6% | 95.7% | 110% | 97.4% | residual activity (CDK7 CCNH MNAT1 (human)): 98.5%; residual activity (MAP3K7 TAB1 (human)): 87.9%; residual activity (MAP4K4 (human)): 96.2%; residual activity (MAPKAPK2 (human)): 92.3%; residual activity (MATK (human)): 102%; residual activity (MST4 (human)): 95.2%; residual activity (NEK6 (human)): 111%; residual activity (NEK9 (human)): 103%; residual activity (NLK (human)): 93.6%; residual activity (PAK1 (human)): 89.9%; residual activity (PLK3 (human)): 94.6%; residual activity (PRKCE (human)): 108%; residual activity (PRKCG (human)): 90.4%; residual activity (PRKCH (human)): 100%; residual activity (PRKG1 (human)): 103% and 107%; residual activity (STK39 (human)): 87.6%; residual activity (VRK1 (human)): 86.4%
